In brackets after ≈: the same amount, converted by molar mass.
How the values were obtained:
[1] = system: Mycobacterium tuberculosis; assay: Antitubercular activity against Mycobacterium tuberculosis H37Rv ATCC 27294 by radiometric BACTEC 460 system; type: functional
[2] = system: Vero; assay: Cytotoxicity against african green monkey Vero cells; type: cell-based; settings: Chlorocebus sabaeus

Row | Compound | MIC [1] | IC50 [2]
1 | CC(C)=CC(=O)O[C@@H]1CC(C)(C)C[C@H]2C3=CC[C@@H]4[C@]56CC[C@@](O)(OC5)C(C)(C)[C@@H]6CC[C@@]4(C)[C@]3(C)CC[C@@]12C(=O)O [LANTANILIC ACID] | > 128 µM | 
2 | CC1(C)CC[C@]2(C(=O)O)CC[C@]3(C)C(=CC[C@@H]4[C@]56CC[C@@](O)(OC5)C(C)(C)[C@@H]6CC[C@]43C)[C@@H]2C1 [LANTANOLIC ACID] | > 128 µM | 
3 | C/C=C(/C)C(=O)O[C@@H]1CC(C)(C)C[C@H]2C3=CC[C@@H]4[C@@]5(C)CCC(=O)C(C)(C)[C@@H]5CC[C@@]4(C)[C@]3(C)CC[C@@]12C(=O)O [LANTADENE A] | 32 µM (≈ 17.7 µg/mL) | 15 µM
4 | C/C=C(\C)C(=O)O[C@@H]1[C@@H](O)C(C)(C)C[C@H]2C3=CC[C@@H]4[C@]56CC[C@](O)(OC5)C(C)(C)[C@@H]6CC[C@@]4(C)[C@]3(C)CC[C@@]12C(=O)O | 128 µM (≈ 74.9 µg/mL) | 
5 | CCC(C)C(=O)O[C@@H]1CC(C)(C)C[C@H]2C3=CC[C@@H]4[C@]56CC[C@](O)(OC5)C(C)(C)[C@@H]6CC[C@@]4(C)[C@]3(C)CC[C@@]12C(=O)O (stereo not given in full) | 128 µM (≈ 73.1 µg/mL) | 
6 | C/C=C(/C)C(=O)O[C@@H]1[C@@H](O)C(C)(C)C[C@H]2C3=CC[C@@H]4[C@]56CC[C@](O)(OC5)C(C)(C)[C@@H]6CC[C@@]4(C)[C@]3(C)CC[C@@]12C(=O)O | 64 µM (≈ 37.4 µg/mL) | 
7 | C/C=C(/C)C(=O)O[C@@H]1CC(C)(C)C[C@H]2C3=CC[C@@H]4[C@]56CC[C@@](O)(OC5)C(C)(C)[C@@H]6CC[C@@]4(C)[C@]3(C)CC[C@@]12C(=O)O [CAMARIC ACID] | 64 µM (≈ 36.4 µg/mL) | 
8 | CC(C)=CC(=O)O[C@@H]1[C@@H](O)C(C)(C)C[C@H]2C3=CC[C@@H]4[C@]56CC[C@](O)(OC5)C(C)(C)[C@@H]6CC[C@@]4(C)[C@]3(C)CC[C@@]12C(=O)O | 128 µM (≈ 74.9 µg/mL) | 
9 | CO[C@H]1/C=C/O[C@@]2(C)Oc3c(C)c(O)c4c(O)c(c(/C=N/N5CCN(C)CC5)c(O)c4c3C2=O)NC(=O)/C(C)=C\C=C\[C@H](C)[C@H](O)[C@@H](C)[C@@H](O)[C@@H](C)[C@H](OC(C)=O)[C@@H]1C [RIFAMPIN] | 0.3 µM (≈ 0.247 µg/mL) | 
